Assay [1] has as its system SW837 (Rectum). Briefly: Cell proliferation assay (CellTiter-Glo, 3 days treatment), SW837. The class given is cell-based. To be noted: Homo sapiens, 72 h, read-out: Absolute IC50. The source says: (§1) The cell lines tested included as follows: UM-UC-3 (bladder), KYSE-410 (HN/Esophagus), SW1463 (rectum), Calu-1 (Lung), NCI-H358 (Lung), SW837 (Rectum), SW756 (Cervix), NCI-H2122 (Lung), NCI-H1373 (Lung), NCI-H1792 (Lung), NCI-H23 (Lung), MIA PaCa-2 (Pancreas), and HC44.
(§2) Cells were recovered and maintained in appropriate culture media. The cells were harvested respectively during the logarithmic growth period. The cells were then resuspended and counted using a Vi cell counter (The cell viability be measured by trypan blue exclusion assay.). The cells were then diluted and 90 μL cell suspensions were used in 96-well plates according to plate map with final cell density. Two duplicate plates were set up. One is for day 0 reading (TO) and the other was cultured in incubator for reading at the end point. The incubated plates were incubated overnight in humidified incubator at 37° C. with 5% CO2.
(§3) At day 0, 10 μL culture medium to each well for TO reading. 10 μL of culture medium was added to each well for TO reading. Then, 50 μl CellTiter-Glo® Reagent was added to each well. […] Luminescence was then recorded using an EnVision Multi Label Reader. […]
(§4) For the endpoint CTG reading, 50 μL of CellTiter-Glo® Reagent were added to each well. […] Luminescence was then recorded using an EnVision Multi Label Reader. IC50's were determined for each cell line.
In general terms: Cellular ATP, detected with luciferase, serves as a proxy for viable cell number.

Assay [2] has as its system UM-UC-3 (bladder). Briefly: Cell proliferation assay (CellTiter-Glo, 3 days treatment), UM-UC-3. The class given is cell-based. The conditions noted are these: Homo sapiens, UMUC3, 72 h, read-out: Absolute IC50.
Description: as §1, §2, §3, §4

In assay [3] the test system is NCI-H23 (Lung). The assay can be described thus: Cell proliferation assay (CellTiter-Glo, 3 days treatment), NCI-H23. It counts as cell-based. To be noted: Homo sapiens, 72 h, read-out: Absolute IC50.
Description: as §1, §2, §3, §4

For assay [4], the system named is NCI-H1792 (Lung). The assay can be described thus: Cell proliferation assay (CellTiter-Glo, 3 days treatment), NCI-H1792. It counts as cell-based. To be noted: Homo sapiens, 72 h, read-out: Absolute IC50.
Description: as §1, §2, §3, §4

Assay [5] relates to KYSE-410 (HN/Esophagus). The assay can be described thus: Cell proliferation assay (CellTiter-Glo, 3 days treatment), KYSE-410. The conditions noted are these: Homo sapiens, 72 h, read-out: Absolute IC50. It counts as cell-based.
Description: as §1, §2, §3, §4

The target of assay [6] is T1, PI3K (Homo sapiens, UniProt P42336).
T1 construct: expressed in transfected cells; host or cells: HEK293 (Gibco 293-H, #11631017), transient transfection with FuGENE HD
Briefly: NanoBRET screening in transfected HEK293 cells (binding assay, with washout). To be noted: compound incubated overnight then washed. The procedure: Human embryonic kidney 293-H (HEK 293, Gibco 293-H, #11631017) cell lines were maintained in Dulbecco's Modified Eagle Medium, high glucose, pyruvate (DMEM, Gibco, #11995065) supplemented with 10% fetal bovine serum (FBS, Gibco, #10082147) and 1× penicillin-streptomycin (100× solution, Gibco, #15140148) at 37° C. and 5% CO2 in a water-saturated incubator. Cell were trypsinized using 0.05% or 0.25% Trypsin-EDTA solution (Trypsin-EDTA, phenol red, Gibco, #25200056 (0.25%) or #25300054). Opti-MEM media supplemented with 10% fetal bovine serum (Opti-MEM I reduced serum media, no phenol red, Gibco, #11058021) was used for culturing cells overnight for NanoBRET readout experiments.
HEK293 cells were cultivated appropriately prior to assay. The medium from cell flask was removed via aspiration, washed 1× with PBS followed by aspiration, trypsinized, and cells were allowed to dissociate from the flask. Trypsin was neutralized using growth medium and cells were pelleted via centrifugation at 200×g for 5 minutes. The medium was aspirated and the cells were resuspended into a single cell suspension using Opti-MEM I supplemented with 10% FBS. The cell density was adjusted to 2×10^5/mL in Opti-MEM I supplemented with 10% FBS in a sterile, conical tube. […]
A 10 μg/mL solution of DNA was prepared in Opti-MEM without serum. […] The plate on plate reader is read every hour for the next 6 hours.

Assay [7] has as its system Calu-1 (Lung). The assay can be described thus: Cell proliferation assay (CellTiter-Glo, 3 days treatment), Calu-1. The class given is cell-based. To be noted: Homo sapiens, 72 h, read-out: Absolute IC50.
Description: as §1, §2, §3, §4

For assay [8], the system named is NCI-H358 (Lung). Briefly: Cell proliferation assay (CellTiter-Glo, 3 days treatment), NCI-H358. It counts as cell-based.
Description: as §1, §2
At day 0, 10 μL culture medium to each well for TO reading. Then, 50 μl CellTiter-Glo® Reagent was added to each well. The contents were then mixed for 2 minutes on an orbital shaker to facilitate cell lysis. The plates were then allowed to incubate at room temperature for 10 minutes to stabilize luminescent signal. Luminescence was then recorded using an EnVision Multi Label Reader. The test compound Compound I, and a control cisplatin, where then diluted at various concentrations from a 10 mM stock solution. Compound I was diluted and 10 μL of each 10× compound I from working solutions for a concentration ranging from 10 μM to about 0.005 μM. Cisplatin was diluted to about […] to about 150 nM. The screening plates were then placed back into the incubator for the appropriate treatment time (3 days).
For the endpoint CTG reading, 50 μL of CellTiter-Glo® Reagent were added to each well. The contents were then mixed for 2 minutes on an orbital shaker to facilitate cell lysis. […] Luminescence was then recorded using an EnVision Multi Label Reader. IC50's were determined for each cell line.

The test system of assay [9] is SW756 (Cervix). Briefly: Cell proliferation assay (CellTiter-Glo, 3 days treatment), SW756. To be noted: Homo sapiens, 72 h, read-out: Absolute IC50. The class given is cell-based.
Description: as §1, §2, §3, §4

Assay [10] has as its system NCI-H1373 (Lung). Briefly: Cell proliferation assay (CellTiter-Glo, 3 days treatment), NCI-H1373. The class given is cell-based. To be noted: Homo sapiens, 72 h, read-out: Absolute IC50.
Description: as §1, §2, §3, §4

In assay [11] the test system is NCI-H2122 (Lung). The assay can be described thus: Cell proliferation assay (CellTiter-Glo, 3 days treatment), NCI-H2122. It counts as cell-based. To be noted: Homo sapiens, 72 h, read-out: Absolute IC50.
Description: as §1, §2, §3, §4

Assay [12] deals with SW1463 (rectum). The assay can be described thus: Cell proliferation assay (CellTiter-Glo, 3 days treatment), SW1463. It counts as cell-based. To be noted: Homo sapiens, 72 h, read-out: Absolute IC50.
Description: as §1, §2, §3, §4

Assay [13] relates to MIA PaCa-2 (Pancreas). Briefly: Cell proliferation assay (CellTiter-Glo, 3 days treatment), MIA PaCa-2. It counts as cell-based. The conditions noted are these: Homo sapiens, 72 h, read-out: Absolute IC50.
Description: as §1, §2, §3, §4

For assay [14], the system named is HC44. The assay can be described thus: Cell proliferation assay (CellTiter-Glo, 3 days treatment), HC44. It counts as cell-based. The conditions noted are these: Homo sapiens, 72 h, HCC44 (Lung), read-out: Absolute IC50.
Description: as §1, §2, §3, §4

T1 sequence (P42336 whole entry): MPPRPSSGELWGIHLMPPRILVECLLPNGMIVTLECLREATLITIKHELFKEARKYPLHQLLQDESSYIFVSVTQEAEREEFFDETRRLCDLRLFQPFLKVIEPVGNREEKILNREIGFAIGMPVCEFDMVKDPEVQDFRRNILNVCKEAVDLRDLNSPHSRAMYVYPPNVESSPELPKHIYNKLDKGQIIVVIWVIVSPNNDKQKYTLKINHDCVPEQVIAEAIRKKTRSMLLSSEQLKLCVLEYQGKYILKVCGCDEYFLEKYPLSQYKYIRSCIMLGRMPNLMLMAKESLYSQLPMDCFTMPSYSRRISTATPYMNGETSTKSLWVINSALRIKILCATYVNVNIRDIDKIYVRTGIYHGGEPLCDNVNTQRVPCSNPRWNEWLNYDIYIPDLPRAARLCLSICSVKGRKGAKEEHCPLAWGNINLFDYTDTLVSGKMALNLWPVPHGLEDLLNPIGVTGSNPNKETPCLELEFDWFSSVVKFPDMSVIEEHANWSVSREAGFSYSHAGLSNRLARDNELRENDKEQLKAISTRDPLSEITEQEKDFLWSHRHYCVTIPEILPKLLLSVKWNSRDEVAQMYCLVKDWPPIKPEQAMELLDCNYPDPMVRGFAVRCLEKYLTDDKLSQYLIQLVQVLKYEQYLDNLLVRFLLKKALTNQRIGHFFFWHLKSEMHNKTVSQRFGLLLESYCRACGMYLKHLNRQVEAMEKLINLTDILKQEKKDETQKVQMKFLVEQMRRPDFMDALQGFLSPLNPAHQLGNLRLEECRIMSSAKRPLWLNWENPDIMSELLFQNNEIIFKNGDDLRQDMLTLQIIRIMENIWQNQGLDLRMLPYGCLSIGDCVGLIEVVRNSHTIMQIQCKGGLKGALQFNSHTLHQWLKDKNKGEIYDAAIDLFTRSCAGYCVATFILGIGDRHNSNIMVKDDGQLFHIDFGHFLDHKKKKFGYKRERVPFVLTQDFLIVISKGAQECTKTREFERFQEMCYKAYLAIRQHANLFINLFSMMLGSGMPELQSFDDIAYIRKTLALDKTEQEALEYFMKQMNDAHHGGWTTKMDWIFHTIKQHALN
T1 sequence (P27986 whole entry partner): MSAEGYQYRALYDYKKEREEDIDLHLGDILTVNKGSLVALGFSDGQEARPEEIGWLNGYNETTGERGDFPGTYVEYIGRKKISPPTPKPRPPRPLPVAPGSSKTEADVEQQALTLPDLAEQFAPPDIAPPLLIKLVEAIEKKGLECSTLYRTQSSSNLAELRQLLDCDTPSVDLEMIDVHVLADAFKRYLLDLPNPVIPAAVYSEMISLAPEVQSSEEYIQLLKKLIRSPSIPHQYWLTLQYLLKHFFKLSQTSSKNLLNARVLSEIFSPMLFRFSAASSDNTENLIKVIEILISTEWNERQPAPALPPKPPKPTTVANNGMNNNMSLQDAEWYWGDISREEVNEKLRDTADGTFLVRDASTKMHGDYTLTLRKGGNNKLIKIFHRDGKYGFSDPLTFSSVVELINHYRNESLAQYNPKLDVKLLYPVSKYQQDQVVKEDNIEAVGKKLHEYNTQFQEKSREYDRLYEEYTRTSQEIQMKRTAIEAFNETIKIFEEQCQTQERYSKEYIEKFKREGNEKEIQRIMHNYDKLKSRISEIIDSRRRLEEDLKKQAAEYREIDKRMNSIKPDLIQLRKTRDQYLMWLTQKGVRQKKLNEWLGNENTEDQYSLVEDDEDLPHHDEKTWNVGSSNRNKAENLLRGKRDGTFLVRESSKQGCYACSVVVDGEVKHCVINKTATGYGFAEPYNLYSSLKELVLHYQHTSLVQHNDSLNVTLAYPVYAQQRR

The IC50 is the point on the concentration scale where inhibition reaches its midpoint. As to `C=CC(=O)NCC(=O)N1CCN(Cc2cc3c(N4CCOCC4)nc(-c4cnc(NC(=O)OC)cc4C(F)(F)F)nn3c2)CC1` [Compound I, methyl (5-(6-((4-(acryloylglycyl)piperazin-1-yl)methyl)-4-morpholinopyrrolo[2,1-f][1,2,4]triazin-2-yl)-4-(trifluoromethyl)pyridin-2-yl) carbamate], the IC50 is over 10 µM in [1]; over 10 µM in assay [2]; over 10 µM in [3]; over 10 µM in assay [4]; 2.02 µM in [5]; over 10 µM in assay [7]. Further, the IC50 was 1.69 µM in assay [8] (Homo sapiens, 72 h, NCI-H358 (Lung), 3 days treatment, read-out: Absolute IC50); 7.29 µM in [9]; over 10 µM in [10]; 3.77 µM in assay [11]; 3.86 µM in assay [12]; over 10 µM in assay [13]. The half-maximal inhibitory concentration (IC50) in [14] turned out to be 7.92 µM. In addition, the “inhibition of the PI3K target” value in [6] is on record as “greater than 80%”. The “inhibitory effect on cell proliferation” value in assay [8] (NCI-H358, 3 days treatment, CellTiter-Glo) is “substantial inhibitory effect”.

The values above are taken from patent US20250197408A1, “CRYSTALLINE FORMS AND SALTS OF A PI3K INHIBITOR AND METHODS OF MAKING AND METHODS OF USE THEREOF” (Totus Medicines Inc., priority 2022, published 2025).
